Measurements: the supplement of paper PMC11208160

Assay: recombinant UMI read abundance after kanamycin selection (control-corrected) (log10(CPM+1)); higher = more efficient recombination; extreme values may be limits of the assay; sequences stand for … in AGTGCAGAGAAAATCGGCCAGTTTTCTCTGCCTGCAGTCCGCATGCCGTGGGACCCCTTGGGTTCTAACCTGTTGCCTAGATTTATGCAGCGGACTGCCTTTCTCCCAAAGTGATAAACCGG…AGGTTGGTTTCACT; site = the 11-nt donor
In short: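 After plating on IPTG (0.07 mM) plus kanamycin, or unselected, in two replicates, recombinant UMIs were PCR-amplified across the donor–target junction and sequenced. The cells were Escherichia coli co-electroporated with a UMI-tagged donor and donor-binding-loop pair library and a target plasmid with a fixed target and T7-inducible IS621 bridge recombinase. Values are log10(CPM+1), with CPM averaged over replicates and scaled by control-derived factors.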
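Further: IS621 bridge recombinase in Escherichia coli cells against a fixed T5 target plasmid.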

Sequence | recombinant UMI read abundance (log10)
TCAAATTCATGGACCGGTTTTCCCGGTAATCCGTATTTGCC (site TCTAATTCTGG) | 0
CTGGAAACATGGACCGGTTTTCCCGGTAATCCGTATTTGCA (site CTTGAAACTTG) | 0.578
CAAGTCACATGGACCGGTTTTCCCGGTAATCCGTATTTGGT (site CAAGTCACTTC) | 0.155
CAATTCCCATGGACCGGTTTTCCCGGTAATCCGTATTTGCT (site CAATCCCCTAG) | 0.539
CTTCTCTCATGGACCGGTTTTCCCGGTAATCCGTATTTGTC (site CTTCTCTCTGA) | 2.45
TAGTAATCATGGACCGGTTTTCCCGGTAATCCGTATTTGCG (site TAGCAATCTCG) | 2.29
TATACTGCATGGACCGGTTTTCCCGGTAATCCGTATTTGCT (site TATACTGCTAG) | 1.63
AGCCTAGCATGGACCGGTTTTCCCGGTAATCCGTATTTGGT (site AGCCTAGCTAT) | 0.00284
GCCTAGCCATGGACCGGTTTTCCCGGTAATCCGTATTTGCC (site TCCTAGCCTGG) | 0
GAGCTTACATGGACCGGTTTTCCCGGTAATCCGTATTTGAT (site GAGCTGACTAT) | 0.0138
GGAGTGGCATGGACCGGTTTTCCCGGTAATCCGTATTTGGT (site GGAGTGGCTAG) | 1.26
GAGCTCACATGGACCGGTTTTCCCGGTAATCCGTATTTGAT (site GAGCTAACTAT) | 0
GGGCCTACATGGACCGGTTTTCCCGGTAATCCGTATTTGGG (site GGGCCTACTCC) | 0
CCAGTATCATGGACCGGTTTTCCCGGTAATCCGTATTTGCA (site ACAGTATCTTG) | 1.07
GAAGCAGCATGGACCGGTTTTCCCGGTAATCCGTATTTGCT (site GAAGCAGCTAG) | 2.25
AAACCAGCATGGACCGGTTTTCCCGGTAATCCGTATTTGGC (site AAACCAGCTGC) | 0
GAAAGCCCATGGACCGGTTTTCCCGGTAATCCGTATTTGAC (site GAAAGCCCTGT) | 0
TCTTACCCATGGACCGGTTTTCCCGGTAATCCGTATTTGGA (site TCTTACCCTTC) | 0.0207
AGCTCAGCATGGACCGGTTTTCCCGGTAATCCGTATTTGGG (site AGCGCAGCTCC) | 0.0219
CACTTGGCATGGACCGGTTTTCCCGGTAATCCGTATTTGGT (site CACTTGGCTCC) | 0.103
ACACGAACATGGACCGGTTTTCCCGGTAATCCGTATTTGCC (site ACACGAACTGA) | 1.32
GACCACCCATGGACCGGTTTTCCCGGTAATCCGTATTTGTT (site GTCCACCCTAA) | 0.0482
CTAGTAGCATGGACCGGTTTTCCCGGTAATCCGTATTTGAA (site CTAGTATCTGT) | 0
TACACCGCATGGACCGGTTTTCCCGGTAATCCGTATTTGAG (site TACACCGCTCT) | 0.702
TTCATTGCATGGACCGGTTTTCCCGGTAATCCGTATTTGAA (site TTCATTGCTTT) | 0

Sequence | recombinant UMI read abundance (log10)
GCGAGAACATGGACCGGTTTTCCCGGTAATCCGTATTTGCT (site GCGATAACTAG) | 0.492
CGGGTCACATGGACCGGTTTTCCCGGTAATCCGTATTTGGC (site CGGGTCACTGC) | 3.54
TGTACCCCATGGACCGGTTTTCCCGGTAATCCGTATTTGAC (site TGTACTCCTGT) | 0.00417
CACGGCCCATGGACCGGTTTTCCCGGTAATCCGTATTTGTT (site CACGGCCCTAA) | 0.135
GGACACGCATGGACCGGTTTTCCCGGTAATCCGTATTTGAC (site GGACACGCTGT) | 2.38
CATCTTTCATGGACCGGTTTTCCCGGTAATCCGTATTTGGT (site CATCTTTCTAC) | 0.00559
ATACGGCCATGGACCGGTTTTCCCGGTAATCCGTATTTGAC (site ATACGGCCTGT) | 0
TACTGGGCATGGACCGGTTTTCCCGGTAATCCGTATTTGAA (site TACTGGGCTTT) | 0.637
CGCAATCCATGGACCGGTTTTCCCGGTAATCCGTATTTGTG (site CGGAATCCTAA) | 0
GCGAAGACATGGACCGGTTTTCCCGGTAATCCGTATTTGTT (site GCGAAGACTAA) | 2.37
TCAGAGACATGGACCGGTTTTCCCGGTAATCCGTATTTGCG (site TCAGACACTCG) | 0.327
ACGCGCACATGGACCGGTTTTCCCGGTAATCCGTATTTGCG (site ACGCGCACTCG) | 1.97
CAGTGGACATGGACCGGTTTTCCCGGTAATCCGTATTTGGG (site CAGTTGACTCC) | 0.0125
CAATTCCCATGGACCGGTTTTCCCGGTAATCCGTATTTGCT (site CAAGTCCCTAG) | 1.05
CGTGGAACATGGACCGGTTTTCCCGGTAATCCGTATTTGTG (site CGTGGAACTTA) | 1.61
CTAGTATCATGGACCGGTTTTCCCGGTAATCCGTATTTGAC (site CTAGCTTCTGT) | 0
GCCTGGACATGGACCGGTTTTCCCGGTAATCCGTATTTGGC (site GCCTGGACTGC) | 0.0803
CAGAATCCATGGACCGGTTTTCCCGGTAATCCGTATTTGTT (site CTGAATCCTAA) | 0
AGCCCTTCATGGACCGGTTTTCCCGGTAATCCGTATTTGAC (site AGCCATTCTGT) | 0
ATTGAGACATGGACCGGTTTTCCCGGTAATCCGTATTTGGT (site AATGAGACTAC) | 0.233
AGCTCAGCATGGACCGGTTTTCCCGGTAATCCGTATTTGGG (site AGCTCTGCTCC) | 0.0255
CGGCAGTCATGGACCGGTTTTCCCGGTAATCCGTATTTGCC (site CGGAAGTCTGG) | 0
CCAGCTGCATGGACCGGTTTTCCCGGTAATCCGTATTTGAT (site CCAGTTGCTAT) | 0.00911
CTAGTATCATGGACCGGTTTTCCCGGTAATCCGTATTTGAC (site TTAGTATCTCT) | 0
TACCCAGCATGGACCGGTTTTCCCGGTAATCCGTATTTGCT (site TACCCAGCTAG) | 0.0305

Sequence | recombinant UMI read abundance (log10)
AACAGCCCATGGACCGGTTTTCCCGGTAATCCGTATTTGCA (site AACAGCCCTTG) | 0.756
AGTTATGCATGGACCGGTTTTCCCGGTAATCCGTATTTGGA (site AGTTATGCTTC) | 0.923
CTAGTATCATGGACCGGTTTTCCCGGTAATCCGTATTTGAC (site ATAGTATCTGT) | 0.432
CTGGAAACATGGACCGGTTTTCCCGGTAATCCGTATTTGCA (site CAGGAAACTTG) | 1.85
ACGGGCGCATGGACCGGTTTTCCCGGTAATCCGTATTTGTT (site ACGGGCGCTAA) | 1.39
GAATGGCCATGGACCGGTTTTCCCGGTAATCCGTATTTGCG (site GAATGGCCTAG) | 0
CGTGGAACATGGACCGGTTTTCCCGGTAATCCGTATTTGTT (site CGTCGAACTAA) | 0.0185
ACACATCCATGGACCGGTTTTCCCGGTAATCCGTATTTGCC (site ACACATCCTGA) | 1.25
ACGGGACCATGGACCGGTTTTCCCGGTAATCCGTATTTGTC (site ACGGGACCTGA) | 0
CGTGGGACATGGACCGGTTTTCCCGGTAATCCGTATTTGTT (site CGTGGCACTAA) | 0.0102
GACAAACCATGGACCGGTTTTCCCGGTAATCCGTATTTGGA (site GACAAACCTCC) | 0
GAAGGTACATGGACCGGTTTTCCCGGTAATCCGTATTTGAC (site GTAGGTACTGT) | 2.16
TCAACGTCATGGACCGGTTTTCCCGGTAATCCGTATTTGCA (site TCAACGTCTTG) | 0
AATGAGTCATGGACCGGTTTTCCCGGTAATCCGTATTTGAC (site AATGAGTCTGT) | 3.25
TAGCCCTCATGGACCGGTTTTCCCGGTAATCCGTATTTGGT (site TAGCCCTCTAC) | 1.12
GCTTTCCCATGGACCGGTTTTCCCGGTAATCCGTATTTGAT (site GCTTACCCTAT) | 0
CCTAAGACATGGACCGGTTTTCCCGGTAATCCGTATTTGGC (site CCTAACACTGC) | 0
ACTAGAACATGGACCGGTTTTCCCGGTAATCCGTATTTGGG (site ACTAGAACTCG) | 0.00448
ACTCGAGCATGGACCGGTTTTCCCGGTAATCCGTATTTGCT (site ACTCGAGCTAG) | 1.64
CACGTGGCATGGACCGGTTTTCCCGGTAATCCGTATTTGGA (site CACGTGGCTTC) | 1.2
CGTGCAACATGGACCGGTTTTCCCGGTAATCCGTATTTGTT (site CGTGAAACTAA) | 0
CCTAAAGCATGGACCGGTTTTCCCGGTAATCCGTATTTGAT (site CCTAAAACTAT) | 0
GCTTGGCCATGGACCGGTTTTCCCGGTAATCCGTATTTGAT (site GCTTGACCTAT) | 0.00769
ACTGGATCATGGACCGGTTTTCCCGGTAATCCGTATTTGCA (site ACAGTATCTTG) | 0.973
ATCCATGCATGGACCGGTTTTCCCGGTAATCCGTATTTGAG (site ATCCAAGCTCT) | 0.0773
